Calls of active or inactive are those of the source. How the calls were made is not given here.
Assays:
Assay in all cases: mouse tissue hydrolase off-target engagement – ABPP MudPIT, LC-MS, in vivo study for DAGLb inhibitor project, late-stage follow-up (AID 602353)
Kiaa1363 = conditions: FP-probe spectral counts, stronger effect = lower value
Abhd10 = conditions: FP-probe spectral counts, vehicle vs compound significance, stronger effect = lower value
Pafah1b2 = conditions: FP-probe spectral counts, stronger effect = lower value
Iah1 = conditions: FP-probe spectral counts, stronger effect = lower value
Dpp7 = conditions: FP-probe spectral counts, stronger effect = lower value
Fasn = conditions: FP-probe spectral counts, stronger effect = lower value
Pnpla6 = conditions: FP-probe spectral counts, stronger effect = lower value
Acot2 = conditions: FP-probe spectral counts, stronger effect = lower value
Abhd6 = conditions: FP-probe spectral counts, vehicle vs compound significance, stronger effect = lower value
Apeh = conditions: FP-probe spectral counts, stronger effect = lower value
[1] = molecular target: Acyl-protein thioesterase 1 (Mus musculus) (UniProt P97823); conditions: FP-probe spectral counts, Lypla1, stronger effect = lower value
Pafah2 = conditions: FP-probe spectral counts, vehicle vs compound significance, stronger effect = lower value
Acot1 = conditions: FP-probe spectral counts, stronger effect = lower value
Pnpla8 = conditions: FP-probe spectral counts, stronger effect = lower value
Lpl = conditions: FP-probe spectral counts, stronger effect = lower value
Fam108b = conditions: FP-probe spectral counts, stronger effect = lower value
Ctsg = conditions: FP-probe spectral counts, stronger effect = lower value
Pla2g15 = conditions: FP-probe spectral counts, stronger effect = lower value
Abhd11 = conditions: FP-probe spectral counts, stronger effect = lower value
Lypla1 = conditions: FP-probe spectral counts, vehicle vs compound significance, stronger effect = lower value
Pafah1b3 = conditions: FP-probe spectral counts, stronger effect = lower value
Magl = conditions: FP-probe spectral counts, stronger effect = lower value
[2] = molecular target: Palmitoyl-protein thioesterase ABHD10, mitochondrial (Mus musculus) (UniProt Q6PE15); conditions: FP-probe spectral counts, stronger effect = lower value
[3] = molecular target: Platelet-activating factor acetylhydrolase (Mus musculus) (UniProt Q60963); conditions: FP-probe spectral counts, Pla2g7, stronger effect = lower value
Elane = conditions: FP-probe spectral counts, stronger effect = lower value
Dpp8 = conditions: FP-probe spectral counts, stronger effect = lower value
Dpp4 = conditions: FP-probe spectral counts, stronger effect = lower value
Abhd12 = conditions: FP-probe spectral counts, stronger effect = lower value
Lipe = conditions: FP-probe spectral counts, stronger effect = lower value
Daglb = conditions: FP-probe spectral counts, vehicle vs compound significance, stronger effect = lower value
[4] = molecular target: Monoacylglycerol lipase ABHD6 (Mus musculus) (UniProt Q8R2Y0); conditions: FP-probe spectral counts, stronger effect = lower value
Pla2g7 = conditions: FP-probe spectral counts, vehicle vs compound significance, stronger effect = lower value
Prcp = conditions: FP-probe spectral counts, stronger effect = lower value
[5] = molecular target: Diacylglycerol lipase-beta (Mus musculus) (UniProt Q91WC9); conditions: FP-probe spectral counts, Daglb, stronger effect = lower value
Pnpla7 = conditions: FP-probe spectral counts, stronger effect = lower value
Lypla2 = conditions: FP-probe spectral counts, stronger effect = lower value
Ctsa = conditions: FP-probe spectral counts, stronger effect = lower value
Aoah = conditions: FP-probe spectral counts, stronger effect = lower value
Dpp9 = conditions: FP-probe spectral counts, stronger effect = lower value
Parl = conditions: FP-probe spectral counts, stronger effect = lower value
[6] = molecular target: Platelet-activating factor acetylhydrolase 2, cytoplasmic (Mus musculus) (UniProt Q8VDG7); conditions: FP-probe spectral counts, Pafah2, stronger effect = lower value
[7] = vehicle vs compound significance

Platelet-activating factor acetylhydrolase (Mus musculus), sequence (Q60963 whole entry, looked up): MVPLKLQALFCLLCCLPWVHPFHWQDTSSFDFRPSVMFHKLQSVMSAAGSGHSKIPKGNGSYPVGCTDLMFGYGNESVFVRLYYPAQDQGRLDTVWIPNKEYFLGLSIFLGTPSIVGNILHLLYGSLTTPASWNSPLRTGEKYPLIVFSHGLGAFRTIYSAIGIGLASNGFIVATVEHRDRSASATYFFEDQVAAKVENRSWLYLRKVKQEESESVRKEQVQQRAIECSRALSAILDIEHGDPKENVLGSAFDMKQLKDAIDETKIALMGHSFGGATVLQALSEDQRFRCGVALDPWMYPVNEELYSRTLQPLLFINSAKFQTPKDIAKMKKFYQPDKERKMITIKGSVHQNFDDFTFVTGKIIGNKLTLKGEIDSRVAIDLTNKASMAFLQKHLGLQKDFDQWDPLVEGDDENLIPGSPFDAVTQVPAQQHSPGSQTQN
Platelet-activating factor acetylhydrolase 2, cytoplasmic (Mus musculus), sequence (Q8VDG7 whole entry, looked up): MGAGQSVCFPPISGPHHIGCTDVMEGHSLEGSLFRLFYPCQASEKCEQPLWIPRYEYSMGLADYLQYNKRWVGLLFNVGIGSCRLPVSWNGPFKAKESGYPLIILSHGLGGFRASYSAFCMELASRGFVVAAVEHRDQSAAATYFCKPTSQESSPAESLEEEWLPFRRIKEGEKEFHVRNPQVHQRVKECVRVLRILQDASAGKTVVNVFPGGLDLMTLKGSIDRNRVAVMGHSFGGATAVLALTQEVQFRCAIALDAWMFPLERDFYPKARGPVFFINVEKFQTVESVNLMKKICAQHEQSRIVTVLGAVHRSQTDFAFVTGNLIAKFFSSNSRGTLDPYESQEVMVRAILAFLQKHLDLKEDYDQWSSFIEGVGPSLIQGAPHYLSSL
Diacylglycerol lipase-beta (Mus musculus), sequence (Q91WC9 whole entry, looked up): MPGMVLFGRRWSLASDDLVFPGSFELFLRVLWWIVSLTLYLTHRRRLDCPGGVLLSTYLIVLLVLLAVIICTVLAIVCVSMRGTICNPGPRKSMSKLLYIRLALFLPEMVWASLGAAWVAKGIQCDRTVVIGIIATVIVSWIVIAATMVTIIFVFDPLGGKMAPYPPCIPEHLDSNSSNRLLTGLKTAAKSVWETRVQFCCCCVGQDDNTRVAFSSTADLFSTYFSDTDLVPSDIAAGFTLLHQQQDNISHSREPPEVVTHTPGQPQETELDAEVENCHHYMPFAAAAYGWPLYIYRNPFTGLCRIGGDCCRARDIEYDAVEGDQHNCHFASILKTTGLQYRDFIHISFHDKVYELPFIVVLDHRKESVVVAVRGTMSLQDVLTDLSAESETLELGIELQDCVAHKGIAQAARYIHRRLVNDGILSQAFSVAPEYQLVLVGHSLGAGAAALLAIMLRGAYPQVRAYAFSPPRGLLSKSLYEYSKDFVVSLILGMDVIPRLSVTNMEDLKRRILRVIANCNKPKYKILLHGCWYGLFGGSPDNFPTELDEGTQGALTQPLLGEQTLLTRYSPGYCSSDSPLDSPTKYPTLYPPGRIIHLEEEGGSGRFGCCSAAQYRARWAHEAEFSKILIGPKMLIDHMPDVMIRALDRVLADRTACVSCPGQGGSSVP
Palmitoyl-protein thioesterase ABHD10, mitochondrial (Mus musculus), sequence (Q6PE15 whole entry, looked up): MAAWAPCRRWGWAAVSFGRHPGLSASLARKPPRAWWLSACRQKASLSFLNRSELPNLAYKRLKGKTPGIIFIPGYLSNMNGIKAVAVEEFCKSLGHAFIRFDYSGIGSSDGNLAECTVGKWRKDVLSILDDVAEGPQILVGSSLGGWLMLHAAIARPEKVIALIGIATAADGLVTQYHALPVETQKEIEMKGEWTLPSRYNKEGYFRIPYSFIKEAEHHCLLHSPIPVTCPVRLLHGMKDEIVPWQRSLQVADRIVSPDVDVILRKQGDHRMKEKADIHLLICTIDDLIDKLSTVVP
Acyl-protein thioesterase 1 (Mus musculus), sequence (P97823 whole entry, looked up): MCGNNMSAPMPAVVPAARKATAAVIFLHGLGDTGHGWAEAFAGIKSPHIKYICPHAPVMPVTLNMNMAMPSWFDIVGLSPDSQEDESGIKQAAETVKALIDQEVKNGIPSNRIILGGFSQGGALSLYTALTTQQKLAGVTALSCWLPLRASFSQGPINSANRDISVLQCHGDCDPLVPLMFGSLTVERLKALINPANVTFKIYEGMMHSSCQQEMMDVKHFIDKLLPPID
Monoacylglycerol lipase ABHD6 (Mus musculus), sequence (Q8R2Y0 whole entry, looked up): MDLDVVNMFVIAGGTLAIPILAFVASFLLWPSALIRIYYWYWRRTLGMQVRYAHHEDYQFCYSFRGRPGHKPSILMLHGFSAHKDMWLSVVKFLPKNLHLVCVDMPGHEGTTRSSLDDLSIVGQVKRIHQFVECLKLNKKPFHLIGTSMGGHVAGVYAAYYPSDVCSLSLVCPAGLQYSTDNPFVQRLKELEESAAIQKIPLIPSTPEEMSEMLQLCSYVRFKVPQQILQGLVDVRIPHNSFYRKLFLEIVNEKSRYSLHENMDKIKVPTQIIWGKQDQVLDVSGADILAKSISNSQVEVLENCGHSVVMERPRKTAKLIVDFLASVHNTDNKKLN

COc1ccccc1-c1ccc(-c2cn(C(=O)N3CCCCC3Cc3ccccc3)nn2)cc1 (stereo not given)
spectral counts, test compound (Kiaa1363): 206 (inactive) | P value (Kiaa1363; [7]): 0.156 | P value (Abhd10): 0.961 | spectral counts, test compound (Pafah1b2): 66 (inactive) | P value (Pafah1b2; [7]): 0.317 | spectral counts, test compound (Iah1): 22.3 (inactive) | P value (Iah1; [7]): 0.127 | spectral counts, test compound (Dpp7): 61.7 (inactive) | P value (Dpp7; [7]): 0.138 | spectral counts, test compound (Fasn): 178 (inactive) | P value (Fasn; [7]): 0.517 | spectral counts, test compound (Pnpla6): 11.3 (inactive) | P value (Pnpla6; [7]): 0.696 | spectral counts, test compound (Acot2): 85 (inactive) | P value (Acot2; [7]): 0.094 | P value (Abhd6): 0.033 | spectral counts, test compound (Apeh): 252 (inactive) | P value (Apeh; [7]): 0.731 | spectral counts, test compound [1]: 84 (inactive) | P value (Pafah2): 0.491 | spectral counts, test compound (Acot1): 48.3 (inactive) | P value (Acot1; [7]): 0.802 | spectral counts, test compound (Pnpla8): 3.67 (inactive) | P value (Pnpla8; [7]): 0.35 | spectral counts, test compound (Lpl): 20.3 (inactive) | P value (Lpl; [7]): 0.81 | spectral counts, test compound (Fam108b): 24 (inactive) | P value (Fam108b; [7]): 0.757 | spectral counts, test compound (Ctsg): 283 (inactive) | P value (Ctsg; [7]): 0.854 | spectral counts, test compound (Pla2g15): 15 (inactive) | P value (Pla2g15; [7]): 0.135 | spectral counts, test compound (Abhd11): 23 (inactive) | P value (Abhd11; [7]): 0.167 | P value (Lypla1): 0.819 | spectral counts, test compound (Pafah1b3): 35 (inactive) | P value (Pafah1b3; [7]): 0.532 | spectral counts, test compound (Magl): 5.67 (inactive) | P value (Magl; [7]): 0.368 | spectral counts, test compound [2]: 22.3 (inactive) | spectral counts, test compound [3]: 97.3 (inactive) | spectral counts, test compound (Elane): 120 (inactive) | P value (Elane; [7]): 0.837 | spectral counts, test compound (Dpp8): 31.3 (inactive) | P value (Dpp8; [7]): 0.949 | spectral counts, test compound (Dpp4): 146 (inactive) | P value (Dpp4; [7]): 0.754 | spectral counts, test compound (Abhd12): 64.7 (inactive) | P value (Abhd12; [7]): 0.512 | spectral counts, test compound (Lipe): 76 (inactive) | P value (Lipe; [7]): 0.299 | P value (Daglb): 0.004 | spectral counts, test compound [4]: 0 | P value (Pla2g7): 0.996 | spectral counts, test compound (Prcp): 133 (inactive) | P value (Prcp; [7]): 0.736 | spectral counts, test compound [5]: 0 | spectral counts, test compound (Pnpla7): 34.3 (inactive) | P value (Pnpla7; [7]): 0.536 | spectral counts, test compound (Lypla2): 118 (inactive) | P value (Lypla2; [7]): 0.278 | spectral counts, test compound (Ctsa): 57.7 (inactive) | P value (Ctsa; [7]): 0.562 | spectral counts, test compound (Aoah): 35.7 (inactive) | P value (Aoah; [7]): 0.389 | spectral counts, test compound (Dpp9): 134 (inactive) | P value (Dpp9; [7]): 0.213 | spectral counts, test compound (Parl): 20 (inactive) | P value (Parl; [7]): 0.382 | spectral counts, test compound [6]: 33.7 (inactive)
